Measured values reported in ChEMBL document CHEMBL5728776, “Hydrocarbylsulfonyl-substituted pyridines and their use in the treatment of cancer” (2021).

Tests used:
[1] = molecular target: T1, Thioredoxin reductase 1, cytoplasmic (Homo sapiens, UniProt Q16881); assay: (§1) Inhibition of Recombinant TrxR1: Small molecule inhibition of recombinant thioredoxin reductase 1 (TrxR1) and gluthathione reductase (GR) was examined in 96-well plate format. 30 nM TrxR1 was incubated in the presence of 250 μM NADPH, 0.1 mg/ml BSA, and various concentrations of compound (1% DMSO final) in 50 mM Tris (pH 7.5) and 2 mM EDTA buffer for 15 minutes. Following the incubation period, 2 mM DTNB was added to each well and the change in O.D. at 412 nm was followed. Percent activity was determined using DMSO vehicle and no TrxR1 (blank) controls. 2 nM GR was incubated in the presence of 250 μM NADPH, 0.1 mg/ml BSA, and various concentrations of compounds (1% DMSO final) in 50 mM Tris (pH 7.5) and 2 mM EDTA buffer for 15 minutes. Following the incubation period, 1 mM GSSG was added to each well and the change in O.D. at 340 nm was followed. Percent activity was determined using DMSO vehicle and no GR (blank) controls.
T1 sequence (Q16881 whole entry): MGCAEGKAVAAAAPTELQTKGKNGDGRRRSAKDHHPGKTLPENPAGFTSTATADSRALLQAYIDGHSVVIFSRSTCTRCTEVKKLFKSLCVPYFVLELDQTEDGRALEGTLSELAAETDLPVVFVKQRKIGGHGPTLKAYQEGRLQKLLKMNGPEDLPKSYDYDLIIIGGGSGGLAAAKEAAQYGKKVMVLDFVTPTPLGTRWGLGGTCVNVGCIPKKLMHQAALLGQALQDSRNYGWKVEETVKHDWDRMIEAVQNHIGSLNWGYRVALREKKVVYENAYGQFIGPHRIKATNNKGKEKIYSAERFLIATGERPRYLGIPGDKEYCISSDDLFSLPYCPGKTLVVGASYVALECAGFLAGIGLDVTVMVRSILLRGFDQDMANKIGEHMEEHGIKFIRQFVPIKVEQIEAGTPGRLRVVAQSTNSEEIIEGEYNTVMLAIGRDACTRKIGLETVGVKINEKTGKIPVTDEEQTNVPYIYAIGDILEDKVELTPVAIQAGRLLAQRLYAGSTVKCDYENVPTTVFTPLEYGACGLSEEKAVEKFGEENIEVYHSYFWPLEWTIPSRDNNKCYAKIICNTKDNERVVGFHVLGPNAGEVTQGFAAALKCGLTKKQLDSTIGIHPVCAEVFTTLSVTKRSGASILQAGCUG

[2] = molecular target: T2, Glutathione reductase, mitochondrial (Homo sapiens, UniProt P00390); assay: as §1
T2 sequence (P00390 whole entry): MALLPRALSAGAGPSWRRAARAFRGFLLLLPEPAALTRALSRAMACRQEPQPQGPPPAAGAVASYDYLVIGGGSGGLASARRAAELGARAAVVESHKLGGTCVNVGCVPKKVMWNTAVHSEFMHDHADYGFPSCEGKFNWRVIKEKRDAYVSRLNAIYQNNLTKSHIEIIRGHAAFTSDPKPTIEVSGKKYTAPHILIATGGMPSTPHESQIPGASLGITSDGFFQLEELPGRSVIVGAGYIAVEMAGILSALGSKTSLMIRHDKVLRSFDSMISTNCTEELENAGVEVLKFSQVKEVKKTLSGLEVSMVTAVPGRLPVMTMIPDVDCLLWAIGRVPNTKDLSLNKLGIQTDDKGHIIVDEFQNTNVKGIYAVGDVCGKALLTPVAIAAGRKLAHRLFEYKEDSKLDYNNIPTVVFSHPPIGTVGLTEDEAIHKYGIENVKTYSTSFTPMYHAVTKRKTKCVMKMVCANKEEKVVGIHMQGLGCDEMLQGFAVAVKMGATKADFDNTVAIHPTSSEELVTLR

- IC50 [1]: 276 nM
- IC50 [2]: > 100000 nM
SMILES: CN(C)c1ccc([N+](=O)[O-])c(S(=O)(=O)Cc2ccccc2)n1
